# Laboratory results: patent US20230398130A1, “METHODS AND COMPOSITIONS FOR DIFFERENTIATING STEM CELLS” (Massachusetts Institute of Technology, priority 2020, published 2023)
# Assays:
# ISC-enriched organoids [1] = assay: Primary screen, 384-well 2.5-D organoid differentiation (ENR+CD, 6 days): basal lysozyme secretion (LYZ.NS); format: cell-based, murine; conditions: for SSMD.LYZ.NS: strictly standardized mean difference, primary screen
# Text: High-throughput screening.
# ISC-enriched organoids [2] = assay: Primary screen, 384-well 2.5-D organoid differentiation (ENR+CD, 6 days, Target Selective Inhibitor Library, vs whole-plate median): ATP (CellTiter-Glo 3D, CTG); conditions: for Z.CTG / SSMD.CTG: primary screen; for Z.CTG: standard z score; for SSMD.CTG: strictly standardized mean difference
# [3] = 1st of the 4 dose lines of the treatment (dose not given)
# [4] = 2nd of the 4 dose lines of the treatment (dose not given)
# [5] = 3rd of the 4 dose lines of the treatment (dose not given)
# [6] = 4th of the 4 dose lines of the treatment (dose not given)
Molecule,Z.CTG (standard z score) (ISC-enriched organoids [2]; dose 0.08 uM),Z.CTG (standard z score) (ISC-enriched organoids [2]; dose 0.40 uM),Z.CTG (standard z score) (ISC-enriched organoids [2]; dose 2.00 uM),Z.CTG (standard z score) (ISC-enriched organoids [2]; dose 10.00 uM),other results
CC1=C(/C=C/C(C)=C/C=C/C(C)=C\C(=O)O)C(C)(C)CCC1 [Isotretinoin],,,,,SSMD.LYZ.NS (ISC-enriched organoids [1]; [3]): 0.753; SSMD.LYZ.NS (ISC-enriched organoids [1]; [4]): 0.312; SSMD.LYZ.NS (ISC-enriched organoids [1]; [5]): 0.410; SSMD.LYZ.NS (ISC-enriched organoids [1]; [6]): 0.680; Z.CTG (ISC-enriched organoids [2]; Dose 0.08 uM): 0.982; Z.CTG (ISC-enriched organoids [2]; Dose 0.40 uM): 0.965; Z.CTG (ISC-enriched organoids [2]; Dose 2.00 uM): 0.604; Z.CTG (ISC-enriched organoids [2]; Dose 10.00 uM): 0.331; SSMD.CTG (ISC-enriched organoids [2]; [3]): 1.156; SSMD.CTG (ISC-enriched organoids [2]; [4]): 0.966; SSMD.CTG (ISC-enriched organoids [2]; [5]): 0.779; SSMD.CTG (ISC-enriched organoids [2]; [6]): 0.304
NC(=O)c1cccc(-c2cccc(OC(=O)NC3CCCCC3)c2)c1 [URB597],0.750,0.154,0.328,−0.051,Z.LYZ.NS (standard z score) (ISC-enriched organoids [1]; dose 0.08 uM): 0.754; Z.LYZ.NS (standard z score) (ISC-enriched organoids [1]; dose 0.40 uM): −0.007; Z.LYZ.NS (standard z score) (ISC-enriched organoids [1]; dose 2.00 uM): 0.307; Z.LYZ.NS (standard z score) (ISC-enriched organoids [1]; dose 10.00 uM): −0.123
C=CC(=O)Nc1cccc(Oc2nc(Nc3ccc(N4CCN(C)CC4)cc3OC)ncc2Cl)c1 [WZ4002],0.748,0.196,0.360,−2.248,
Oc1nc(-c2ccc(C(F)(F)F)cc2)nc2c1CSCC2 [XAV-939],−0.792,−0.065,−0.847,−2.147,
CC(C)OC(=O)C1=CN(C(=O)c2ccc(F)c(F)c2)CC(C)(C)c2c1[nH]c1ccccc21 [XL335],0.297,−0.615,−0.619,−0.373,
O=c1ncccn1[C@@H]1O[C@H](CO)[C@@H](O)[C@H]1O [Zebularine],0.085,0.000,−0.213,−0.399,
VU 0357121,0.438,0.352,0.029,−0.141,Z.LYZ.NS (standard z score) (ISC-enriched organoids [1]; dose 0.08 uM): 0.686; Z.LYZ.NS (standard z score) (ISC-enriched organoids [1]; dose 0.40 uM): −0.090; Z.LYZ.NS (standard z score) (ISC-enriched organoids [1]; dose 2.00 uM): 0.261
